From US9440950B2, “Arginine methyltransferase inhibitors and uses thereof” (Epizyme, Inc., priority 2013, dated 2016)

Target: T1, human PRMT1 (Homo sapiens, UniProt Q99873)
T1 construct: GST-tagged PRMT1; made in house; host or cells: High Five insect cells (baculovirus, pFastBacI)
Assay: PRMT1 Biochemical Assay
Details: peptide substrate, 3H-SAM Flashplate assay
Source text: S-adenosylmethionine (SAM), S-adenosylhomocysteine (SAH), bicine, Tween20, dimethylsulfoxide (DMSO), bovine skin gelatin (BSG), and Tris(2-carboxyethyl)phosphine hydrochloride solution (TCEP) were purchased from Sigma-Aldrich at the highest level of purity possible. ^3H-SAM was purchase from American Radiolabeled Chemicals with a specific activity of 80 Ci/mmol. 384-well streptavidin Flashplates were purchased from PerkinElmer.
Peptide representative of human histone H4 residues 36-50 was synthesized with an N-terminal linker-affinity tag motif and a C-terminal amide cap by 21st Century Biochemicals. The peptide was purified by high-performance liquid chromatography (HPLC) to greater than 95% purity and confirmed by liquid chromatography mass spectrometry (LC-MS). The sequence was Biot-Ahx-[…]-amide (SEQ ID NO.: 1).
Full-length human PRMT1 isoform 1 (NM_001536.5) transcript clone was amplified from an HEK 293 cDNA library, incorporating flanking 5′ sequence encoding a FLAG tag ([…]) (SEQ ID NO.:2) fused directly to Met 1 of PRMT1. The amplified gene was subcloned into pFastBacI (Life Technologies) modified to encode an N-terminal GST tag and a TEV cleavage sequence ([…] […] […] […])(SEQ ID NO.:3) fused to Asp of the Flag tag of PRMT1.
Recombinant baculovirus were generated according to Bac-to-Bac kit instructions (Life Technologies). Protein over-expression was accomplished by infecting exponentially growing High Five insect cell culture at 1.5×10^6 cell/ml with 1:100 ratio of virus. Infections were carried out at 27° C. for 48 hours, harvested by centrifugation, and stored at −80° C. for purification.
GST-tagged PRMT1 was eluted with 50 mM Tris, 2 mM glutathione, pH 7.8, dialysed in buffer A and concentrated to 1 mg/mL. The purity of recovered protein was 73%. Reference: Wasilko, D. J. and S. E. Lee: “TIPS: titerless infected-cells preservation and scale-up” Bioprocess J., 5 (2006), pp. 29-32.
General Procedure for PRMT1 Enzyme Assays on Peptide Substrates.
The assays were all performed in a buffer consisting of 20 mM Bicine (pH=7.6), 1 mM TCEP, 0.005% BSG, and 0.002% Tween 20, prepared on the day of use. Compounds in 100% DMSO (1 ul) were spotted into a polypropylene 384-well V-bottom plates (Greiner) using a Platemate Plus outfitted with a 384-channel head (Thermo Scientific). DMSO (1 ul) was added to Columns 11, 12, 23, 24, rows A-H for the maximum signal control and 1 ul of SAH, a known product and inhibitor of PRMT1, was added to columns 11, 12, 23, 24, rows I-P for the minimum signal control. A cocktail (40 ul) containing the PRMT1 enzyme was added by Multidrop Combi (Thermo-Fisher). The compounds were allowed to incubate with PRMT1 for 30 min at room temperature, then a cocktail (10 ul) containing SAM and peptide was added to initiate the reaction (final volume=51 ul). The final concentrations of the components were as follows: PRMT1 was 0.5 nM, ^3H-SAM was 200 nM, non-radiolabeled SAM was 1.5 uM, peptide was 20 nM, SAH in the minimum signal control wells was 1 mM, and the DMSO concentration was 2%. The assays were stopped by the addition of non-radiolabeled SAM (10 ul) to a final concentration of 300 uM, which dilutes the ^3H-SAM to a level where its incorporation into the peptide substrate is no longer detectable. 50 ul of the reaction in the 384-well polypropylene plate was then transferred to a 384-well Flashplate and the biotinylated peptides were allowed to bind to the streptavidin surface for at least 1 hour before being washed once with 0.1% Tween20 in a Biotek ELx405 plate washer. The plates were then read in a PerkinElmer TopCount plate reader to measure the quantity of ^3H-labeled peptide bound to the Flashplate surface, measured as disintegrations per minute (dpm) or alternatively, referred to as counts per minute (cpm).
Where dpm=disintegrations per minute, cmpd=signal in assay well, and min and max are the respective minimum and maximum signal controls. […]

T1 sequence (Q99873 with tags, fused parts or gaps): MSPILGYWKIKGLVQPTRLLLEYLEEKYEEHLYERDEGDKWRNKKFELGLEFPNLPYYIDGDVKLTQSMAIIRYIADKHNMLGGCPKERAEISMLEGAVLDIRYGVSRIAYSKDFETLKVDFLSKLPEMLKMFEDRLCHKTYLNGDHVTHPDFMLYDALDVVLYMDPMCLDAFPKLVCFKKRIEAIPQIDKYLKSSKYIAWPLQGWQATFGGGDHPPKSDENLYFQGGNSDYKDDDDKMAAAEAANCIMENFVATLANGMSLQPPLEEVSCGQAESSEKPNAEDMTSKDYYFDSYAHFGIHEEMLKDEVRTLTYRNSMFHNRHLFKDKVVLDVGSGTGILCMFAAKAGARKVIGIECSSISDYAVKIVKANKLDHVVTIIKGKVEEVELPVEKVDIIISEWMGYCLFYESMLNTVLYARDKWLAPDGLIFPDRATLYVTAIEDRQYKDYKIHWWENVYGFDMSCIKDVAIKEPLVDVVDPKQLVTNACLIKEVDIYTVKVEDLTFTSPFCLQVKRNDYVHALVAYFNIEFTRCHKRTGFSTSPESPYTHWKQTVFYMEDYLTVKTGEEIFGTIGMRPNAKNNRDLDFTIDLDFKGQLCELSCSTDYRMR

Row | IC50 [nM] | SMILES
1 | ≤ 100 | CN(CCN)Cc1c[nH]nc1-c1ccc(C(F)(F)F)nc1 [Compound 13, N^1-methyl-N^1-((3-(6-(trifluoromethyl)pyridin-3-yl)-1H-pyrazol-4-yl)methyl)ethane-1,2-diamine]
2 | 1010 to 3000 | CN(CCN)Cc1c[nH]nc1-c1cnccc1C(F)(F)F [Compound 29]
3 | 101 to 1000 | COc1cc(-c2n[nH]cc2CN(C)CCN)ccn1 [Compound 11]
4 | ≤ 100 | CN(CCN)Cc1c[nH]nc1-c1cncc(F)c1 [Compound 7]
5 | ≤ 100 | CCN(CC(C)C)c1ccc(-c2n[nH]cc2CN(C)CCNC)cn1 [Compound 36]
6 | 101 to 1000 | Cc1ccncc1-c1n[nH]cc1CN(C)CCN [Compound 17]
7 | ≤ 100 | CC(C)Oc1ccc(-c2n[nH]cc2CN(C)CCN)cn1 [Compound 22]
8 | 101 to 1000 | COc1ccc(-c2n[nH]cc2CN(C)CCN)cn1 [Compound 5]
9 | ≤ 100 | CNCCN(C)Cc1c[nH]nc1-c1ccc(N(CC(C)C)CC(C)C)nc1 [Compound 31]
10 | 1010 to 3000 | CN(CCN)Cc1c[nH]nc1-c1cncc(S(C)(=O)=O)c1 [Compound 4]
11 | ≤ 100 | CN(CCN)Cc1c[nH]nc1-c1cncc(Cl)c1 [Compound 19]
12 | ≥ 10000 | Cc1cncc(-c2n[nH]cc2CN(C)CCN)c1 [Compound 6]
13 | ≤ 100 | CN(CCN)Cc1c[nH]nc1-c1ccc(NCc2ccccc2)nc1 [Compound 25]
14 | ≤ 100 | CNCCN(C)Cc1c[nH]nc1-c1ccc(N(C)C(C)C)nc1 [Compound 33, N^1-((3-(6-(isopropyl(methyl)amino)pyridin-3-yl)-1H-pyrazol-4-yl)methyl)-N^1,N^2-dimethylethane-1,2-diamine]
15 | 101 to 1000 | COc1ccncc1-c1n[nH]cc1CN(C)CCN [Compound 16]
16 | 101 to 1000 | COc1ncccc1-c1n[nH]cc1CN(C)CCN [Compound 15]

Row | IC50 [nM] | SMILES
17 | 101 to 1000 | CCN(CC)c1ccc(-c2n[nH]cc2CN(C)CCN)cn1 [Compound 24]
18 | ≤ 100 | CN(CCN)Cc1c[nH]nc1-c1ccncc1 [Compound 9]
19 | ≤ 100 | CC(C)CN(C)c1ccc(-c2n[nH]cc2CN(C)CCN)cn1 [Compound 21]
20 | ≤ 100 | CN(CCN)Cc1c[nH]nc1-c1ccc(N(C)Cc2ccccc2)nc1 [Compound 23]
21 | ≤ 100 | CCN(CCC(C)C)c1ccc(-c2n[nH]cc2CN(C)CCNC)cn1 [Compound 34, N^1-((3-(6-(ethyl(isopentyl)amino)pyridin-3-yl)-1H-pyrazol-4-yl)methyl)-N^1,N^2-dimethylethane-1,2-diamine]
22 | 1010 to 3000 | COc1ncc(Cl)cc1-c1n[nH]cc1CN(C)CCN [Compound 14]
23 | 101 to 1000 | CN(CCN)Cc1c[nH]nc1-c1cncc(C#N)c1 [Compound 18]
24 | ≤ 100 | Cc1cc(-c2n[nH]cc2CN(C)CCN)cnc1Cl [Compound 10]
25 | 101 to 1000 | CN(CCN)Cc1c[nH]nc1-c1cccnc1 [Compound 8]
26 | 3010 to 10000 | CN(CCN)Cc1c[nH]nc1-c1ccccn1 [Compound 27]
27 | ≤ 100 | CN(CCN)Cc1c[nH]nc1-c1ccc(C#N)nc1 [Compound 28, 5-(4-(((2-aminoethyl)(methyl)amino)methyl)-1H-pyrazol-3-yl)picolinonitrile]
28 | ≤ 100 | CNCCN(C)Cc1c[nH]nc1-c1ccc(N(C)CC(C)C)nc1 [Compound 32, N^1-((3-(6-(isobutyl(methyl)amino)pyridin-3-yl)-1H-pyrazol-4-yl)methyl)-N^1,N^2-dimethylethane-1,2-diamine]
29 | ≤ 100 | CNCCN(C)Cc1c[nH]nc1-c1ccc(N(C)CCC(C)C)nc1 [Compound 30]
30 | ≤ 100 | CN(CCN)Cc1c[nH]nc1-c1ccc(N2CCOCC2)nc1 [Compound 20]
31 | 1010 to 3000 | COc1cc(-c2n[nH]cc2CN(C)CCN)c(Cl)cn1 [Compound 12]
32 | ≤ 100 | CC(C)CNc1ccc(-c2n[nH]cc2CN(C)CCN)cn1 [Compound 26]

Row | SMILES | IC50 [nM]
33 | CNCCN(C)Cc1c[nH]nc1-c1ccc(OCC(C)C)nc1 [Compound 35, N^1-((3-(6-iso-butoxypyridin-3-yl)-1H-pyrazol-4-yl)methyl)-N^1,N^2-dimethylethane-1,2-diamine] | ≤ 100
